The results in this text go back to US9598448B2, “Osmium (II) arene imino anti-cancer complexes” (University of Warwick, priority 2010, dated 2017).

The test system of one experiment is tubulin. Nature of the experiment: Tubulin polymerization assay. In kind it is biochemical. The settings on record: Osmium Compounds at 10 μM; 37° C., 60 min. Here is the method: To follow the anticancer mechanism indicated by COMPARE, We have investigated whether osmium complexes can interacted directly with tubulin.
A Cytoskeleton tubulin polymerization assay kit (catalog no BK004) was used in the tubulin polymerization study. Briefly, 10 μL of general tubulin buffer (80 mM PIPES, pH 6.9, 2 mM MgCl2, and 0.5 mM EGTA) containing osmium compound, colchicine or taxol was pipetted into the prewarmed 96 well microplate. Tubulin (defrosted to room temperature from −80° C. and then placed on ice before use) was diluted with tubulin polymerization buffer with 1 mM GTP to a final concentration of 4 mg mL^−1. Diluted tubulin (100 μL) was added into the wells containing osmium compound, colchicine or taxol. Diluted tubulin (100 μL) mixed with general tubulin buffer (10 μL) served as control. The absorbance at 340 nm was read immediately with a Tecan microplate reader.

Another experiment has as its system RT-112 bladder. Nature of the experiment: MTT growth inhibition assay, RT-112. In kind it is cell-based, human. The conditions noted are these: MTT, 96 h. Here is the method:
(§1) Tumor cell growth inhibition was assessed using the MTT assay.^13 2×10^3 cells were inoculated into a 96-well plate and incubated overnight at 37° C. in a humidified atmosphere containing 5% CO2. Complexes were solubilised in DMSO as above, and then diluted in complete cell culture medium to give a broad range of concentrations. Cisplatin was included in the screen as a comparator. Medium was removed from each well and replaced with complex or control solutions, and the plates then incubated for a further 96 hours. After 96 h culture medium was removed and 200 μL of 0.5 mg mL^−1 MTT solution (Sigma) in complete medium added to each well. Following further 4 h incubation, the solution was removed from each well and 150 μL of DMSO (Sigma) added to solubilise the formazan crystals resulting from MTT conversion. Absorbance values for the resulting solutions were read at 550 nm on a microplate reader and cell survival calculated as the absorbance of treated cells divided by the control. Results were expressed in terms of IC50 values (i.e. concentration of compound required to kill 50% of cells) and all experiments were performed in triplicate.
(§2) The following human cancer cell lines were cultured in RPMI 1640 cell culture medium supplemented with 1 mM sodium pyruvate, 2 mM L-glutamine and 10% fetal bovine serum (all from Sigma): A549 non-small cell lung, HCT-116 colon, MCF-7 breast, PC-3 prostate (all from LGC Promochem, Teddington, UK), A2780/cis ovarian (cisplatin-resistant) and RT-112 bladder (both from ECACC, Salisbury, UK).
On the technique in general: Formazan colour is commonly taken as a measure of viable cells.

For another experiment, the system named is Leukemia MOLT-4. Nature of the experiment: NCI 60-cell line screen, MOLT-4. The class given is cell-based, human. The conditions noted are these: Leukemia MOLT-4, 48 h. The protocol: The cells were treated for 48 h at five concentrations ranging from 0.01 to 100 μM. Three endpoints were calculated: GI 50 (the concentration inhibits cell growth by 50%): […]

In the next experiment the test system is PC-3 prostate. The experiment in a line: MTT growth inhibition assay, PC-3. The class given is cell-based, human. The conditions noted are these: 96 h. The protocol:
as §1, §2

For experiment [1], the system named is microtubules in A2780 human ovarian cancer cell line. Nature of the experiment: Immunofluorescence of microtubules by confocal microscopy. The class given is cell-based. The settings on record: 24 h treatment, 1 μM. Here is the method:
A2780 Cells were seeded on Lab-Tek™ Chamber Slides (Thermo Scientific Nunc) 10,000 cells/chamber, after 24 h incubation, osmium compound [Os(η^6-bip)(2-F-Azpy)I]PF6 at different concentrations were added and incubate for another 24 h. Cells were fixed with 4% formaldehyde in PBS (20 min, 310 K), then rinsed with PBS (3×2 mL×2 min), and permeabilized with 0.1% Triton X-100 solution (PBS solution) for 15 min at ambient temperature. The cells were blocked with blocking buffer (2 mg/mL BSA, overnight at […]), and then, the cell monolayers were incubated (1 h, 310 K) with monoclonal anti-α-tubulin-Alexa 488 (4 μg/mL) (Invitrogen Molecular Probles, Catalog No. 32-2588). After the incubation, the cells were washed with PBS and the immunofluorescence was detected using a Leica SP5 fluorescence confocal microscope, with 100× objective.

Another experiment has as its system A549 non-small cell lung. Nature of the experiment: MTT growth inhibition assay, A549. In kind it is cell-based, human. The settings on record: 96 h. Here is the method:
as §1, §2

Some results are limits rather than exact numbers.

With “[(η^6-p-cym)Os(Azpy-NMe2)I]PF6 [Complex 6]”, the “Inhibition of Tubulin Polimerziation” value in the experiment on tubulin is 28.6%. In addition, the IC50 (in general, the point on the concentration scale where inhibition reaches its midpoint) in the experiment with RT-112 bladder is < 300 nM; in the experiment on PC-3 prostate it was 600 nM; with A549 non-small cell lung it was < 300 nM. For the same substance, the GI50 – broadly, the concentration that inhibits growth by half – with Leukemia MOLT-4 is < 50 nM. In addition, the “inhibition of microtubule formation in cells” value in experiment [1] is “inhibition forming microtubules were observed”.
